# Assay results as given in patent US20110086870A1, “Combination Therapy” (AstraZeneca AB, priority 2003, published 2011).
# Key:
# [1] = tested on: human LS-174T colon tumour xenografts; assay: Human LS-174T colon tumour xenografts in Nude mice, test (b) CPT-11+ZD6474; assay type: in vivo; settings: ZD6474 25 mg/kg/day p.o. d 0-20, CPT-11 20 mg/kg i.v. d 0, 7 and 14
# Description: • The control group (Group 1) received a daily oral (p.o.) administration of ZD6474 vehicle for 14 consecutive days (day 0-13) combined with two intravenous (i.v.) injections of saline (the vehicle for CPT-11) on day 0 and 7. […]
# Tumor volumes (mm^3) were assessed at least twice weekly by bilateral Vernier caliper measurement and, taking length to be the longest diameter across the tumor and width the corresponding perpendicular, calculated using the formula (π/6)×(length×width)×square root of (length×width). Growth inhibition from the start of treatment was assessed by comparison of the differences in tumor volume between control and treated groups. For all mice, the study was stopped when tumours reached 2,000 mm^3 For all mice, the tumours were excised and weights recorded upon termination of the study.
# [2] = tested on: human LS-174T colon tumour xenografts; assay: Human LS-174T colon tumour xenografts in Nude mice, test (a) 5-FU+ZD6474; assay type: in vivo; settings: for Inhibition of Control Tumour Growth at day 13 / Regressions: number of tumours which had regressed by ≧10% in volume by day 13, compared with pre-treatment volume on day 0: ZD6474 25 mg/kg/day p.o. d 0-13, 5-FU 75 mg/kg i.v. d 0 and 7; for Inhibition of Control Tumour Growth at day 13: versus vehicle control; for Regressions: number of tumours which had regressed by ≧10% in volume by day 13, compared with pre-treatment volume on day 0: regressed tumours/tumours in group; for tumour regressions: share of tumours regressed by day 13, same doses as the table
# Description: 10^7 LS-174T tumour cells in 0.2 ml of serum free Roswell Park Memorial Institute (RPMI)-1640 medium were injected subcutaneously (s.c.) into the flanks of 10 athymic (nu/nu genotype) mice. When tumour sizes reached 700-1000 mm^3 (3-4 weeks), tumours were surgically excised and smaller tumour fragments thereof (20-30 mg) were implanted s.c. in the right flank of 120 Nude mice. When tumours reached a volume of 100 to 200 mm^3 (14-16 days after the graft), mice were randomized into groups (13-15 per group) and treatment started.
# • The control group (Group 1) received a daily oral (p.o.) administration of ZD6474 vehicle for 14 consecutive days (day 0-13) combined with two intravenous (i.v.) injections of saline (the vehicle for 5-FU) on day 0 and 7. • For Group 2, the treatments consisted of a daily p.o. administration of ZD6474 alone at 25 mg/kg/administration for 14 consecutive days (day 0-13) combined with two i.v. injections of saline (the vehicle for 5-FU) on day 0 and 7. ZD6474 was prepared as a suspension in 1% polysorbate 80 (i.e. a 1% (v/v) solution of polyoxyethylene (20) sorbitan mono-oleate in deionised water). • Group 3 received two i.v. injections of 5-FU at 75 mg/kg/injection, on day 0 and 7, combined with a daily p.o. administration of ZD6474 vehicle for 14 consecutive days (day 0-13). • Group 4 received daily p.o. administration of ZD6474 at 25 mg/kg/administration for 14 consecutive days (day 0-13) combined with two i.v. injections of 5-FU at 75 mg/kg/injection, on day 0 and 7.
# The administration volume of ZD6474 was 10.0 ml/kg (200 μl for a 20 g mouse). The injection volume of 5-FU was 10.0 ml/kg (200 μl for a 20 g mouse).
# Tumor volumes (mm^3) were assessed at least twice weekly by bilateral Vernier caliper measurement and, taking length to be the longest diameter across the tumor and width the corresponding perpendicular, calculated using the formula (π/6)×(length×width)×the square root of (length×width). Growth inhibition from the start of treatment was assessed by comparison of the differences in tumor volume between control and treated groups. For all mice, the study was stopped when tumours reached 2,000 mm^3 For all mice, the tumours were excised and weights recorded upon termination of the study.
SMILES,mean tumour volume on day 20 [1],Inhibition of Control Tumour Growth at day 13 [2],"Regressions: number of tumours which had regressed by ≧10% in volume by day 13, compared with pre-treatment volume on day 0 [2]",tumour regressions [2]
"COc1cc2c(Nc3ccc(Br)cc3F)ncnc2cc1OCC1CCN(C)CC1 [ZD6474, 4-(4-bromo-2-fluoroanilino)-6-methoxy-7-(1-methylpiperidin-4-ylmethoxy)quinazoline]",475 mm^3,80%,5/15,33%
"O=c1[nH]cc(F)c(=O)[nH]1 [5-FU, 5-fluorouracil, reference compound]",,68%,6/15,40%
